# Values joined by “and” are separate entries in the source; they are usually repeats but may differ in a detail not shown here. Equal values may be shown once.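 Tested at 5 concentrations; 48 h exposure; 96-well plates; endpoints linearly interpolated, else capped at highest concentration. At the TGI there is no net growth.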
# Tests used:
# Experiment in all cases: growth of human tumour cells (NCI), 48 h
# [1] = system: MOLT-4 leukemia
# [2] = system: KM12 colon
# [3] = system: HT29 colon
# [4] = system: SN12C renal
# [5] = system: MCF7 breast
# [6] = system: NCI-H522 lung
# [7] = system: SF-295 CNS
# [8] = system: PC-3 prostate
# [9] = system: COLO 205 colon
# [10] = system: HCT-116 colon
compound,measurement,setting,value
O/N=C1\CSc2ccccc2C1,TGI,[1],> 100 µM
same,TGI,[2],> 100 µM
same,TGI,[3],> 100 µM
same,TGI,[4],> 100 µM
same,TGI,[5],> 100 µM
same,TGI,[6],> 100 µM
same,TGI,[7],> 100 µM
same,TGI,[8],> 100 µM
same,TGI,[9],> 100 µM
same,TGI,[10],> 100 µM
CSC1(Cc2ccccn2)C(=O)Nc2cccc([N+](=O)[O-])c21 (stereo not given),TGI,[1],> 100 µM
same,TGI,[2],> 100 µM
same,TGI,[3],> 100 µM
same,TGI,[4],> 100 µM
same,TGI,[5],> 100 µM
same,TGI,[6],> 100 µM
same,TGI,[7],> 100 µM
same,TGI,[8],> 100 µM
same,TGI,[9],> 100 µM
same,TGI,[10],> 100 µM
CO/C(=N\N=C(/c1ccccc1)C(F)(F)F)c1ccncc1,TGI,[1],> 100 µM
same,TGI,[2],> 100 µM
same,TGI,[3],> 100 µM
same,TGI,[4],> 100 µM
same,TGI,[5],> 100 µM
same,TGI,[6],> 100 µM
same,TGI,[7],> 100 µM
same,TGI,[8],> 100 µM
same,TGI,[9],> 100 µM
same,TGI,[10],> 100 µM
Cn1cnnc1SC(F)(F)c1nc2ccccc2o1,TGI,[1],> 100 µM
same,TGI,[2],> 100 µM
same,TGI,[3],> 100 µM
same,TGI,[4],> 100 µM
same,TGI,[5],> 100 µM
same,TGI,[6],> 100 µM
same,TGI,[7],> 100 µM
same,TGI,[8],> 100 µM
same,TGI,[9],> 100 µM
same,TGI,[10],> 100 µM
Cc1ccc(C=C(C(=O)O)C(=O)O)o1,TGI,[1],> 100 µM
same,TGI,[2],> 100 µM
same,TGI,[3],> 100 µM
same,TGI,[4],> 100 µM
same,TGI,[5],> 100 µM
same,TGI,[6],> 100 µM
same,TGI,[7],> 100 µM
same,TGI,[8],> 100 µM
same,TGI,[9],> 100 µM
same,TGI,[10],> 100 µM
C=C(Cl)C(Cl)(CBr)CCC(Br)C(C)(C)Cl (stereo not given),TGI,[1],59.8 µM and 33.4 µM and 54.3 µM
same,TGI,[2],3.57 µM and 2.83 µM and 6.38 µM
same,TGI,[3],2.19 µM and 1.94 µM and 2.1 µM
same,TGI,[4],21.9 µM and 19.3 µM and 28.1 µM
same,TGI,[5],2.83 µM and 2.09 µM and 8.1 µM
same,TGI,[6],34.9 µM and 27.1 µM and 28.9 µM
same,TGI,[7],3.53 µM and 3.04 µM and 3.7 µM
same,TGI,[8],2.42 µM and 2.17 µM and 3.02 µM
same,TGI,[9],4.02 µM and 7.41 µM and 31.6 µM
same,TGI,[10],1.77 µM and 1.61 µM and 5.75 µM
CC(=O)Nc1sccc1S(=O)(=O)c1ccc(Cl)cc1,TGI,[1],> 100 µM
same,TGI,[2],> 100 µM
same,TGI,[3],> 100 µM
same,TGI,[4],> 100 µM
same,TGI,[5],> 100 µM
same,TGI,[6],> 100 µM
same,TGI,[7],> 100 µM
same,TGI,[8],> 100 µM
same,TGI,[9],> 100 µM
same,TGI,[10],> 100 µM
Cc1cc(C)nc(NC(=S)Nc2ccc(Cl)cc2)c1,TGI,[1],> 100 µM
same,TGI,[2],> 100 µM
same,TGI,[3],> 100 µM
same,TGI,[4],> 100 µM
same,TGI,[5],> 100 µM
same,TGI,[6],39.1 µM
same,TGI,[7],> 100 µM
same,TGI,[8],> 100 µM
same,TGI,[9],> 100 µM
same,TGI,[10],> 100 µM
CC1=NNC(=O)[C@H]2[C@H]1CCC1[C@@H]2CC[C@]2(C)[C@@H](O)CC[C@@H]12 (stereo not given in full),TGI,[1],> 100 µM
same,TGI,[2],> 100 µM
same,TGI,[3],> 100 µM
same,TGI,[4],> 100 µM
same,TGI,[5],> 100 µM
same,TGI,[6],> 100 µM
same,TGI,[7],> 100 µM
same,TGI,[8],> 100 µM
same,TGI,[9],> 100 µM
same,TGI,[10],> 100 µM
Cc1cc2c3c(c1)CCCN3CCC2,TGI,[1],> 10 µM
same,TGI,[2],> 10 µM
same,TGI,[3],> 10 µM
same,TGI,[4],> 10 µM
same,TGI,[5],> 10 µM
same,TGI,[6],> 10 µM
same,TGI,[7],> 10 µM
same,TGI,[8],> 10 µM
same,TGI,[9],> 10 µM
same,TGI,[10],> 10 µM
O=S(=O)(/N=C(\NO)Nc1ccc(Cl)cc1)c1cc(S(=O)(=O)c2ccccc2)cs1,TGI,[1],39.8 µM
same,TGI,[2],64.7 µM
same,TGI,[3],47 µM
same,TGI,[4],33.6 µM
same,TGI,[5],35.9 µM
same,TGI,[6],25.2 µM
same,TGI,[7],32.7 µM
same,TGI,[8],33.9 µM
same,TGI,[9],34.2 µM
same,TGI,[10],26.4 µM
COc1cccc(N2C(=O)C3CC(CC(C)(C)C)c4c([nH]c5ccccc45)C3C2=O)c1 (stereo not given),TGI,[1],> 10 µM
same,TGI,[2],> 10 µM
same,TGI,[3],> 10 µM
same,TGI,[4],> 10 µM
same,TGI,[5],> 10 µM
same,TGI,[6],> 10 µM
same,TGI,[7],> 10 µM
same,TGI,[8],> 10 µM
same,TGI,[9],> 10 µM
same,TGI,[10],> 10 µM
O=C(O)Cc1ccc(Oc2nc3ccccc3nc2-c2ccccc2)cc1,TGI,[1],> 100 µM
same,TGI,[2],> 100 µM
same,TGI,[3],> 100 µM
same,TGI,[4],> 100 µM
same,TGI,[5],> 100 µM
same,TGI,[6],> 100 µM
same,TGI,[7],> 100 µM
same,TGI,[8],> 100 µM
same,TGI,[9],> 100 µM
same,TGI,[10],> 100 µM
CC(=O)OC1CC[C@@]2(C)C(=CC[C@@H]3[C@@H]2CC[C@]2(C)C(OC(C)=O)[C@H](n4ccnc4)C[C@@H]32)C1 (stereo not given in full),TGI,[1],30.3 µM
same,TGI,[2],30.4 µM
same,TGI,[3],23.7 µM
same,TGI,[4],> 100 µM
same,TGI,[5],33.2 µM
same,TGI,[6],40.9 µM
same,TGI,[7],> 100 µM
same,TGI,[8],39.5 µM
same,TGI,[9],34.4 µM
same,TGI,[10],31.2 µM
CC(=O)Oc1ccc(/C=C/C(=O)NCCOC(=O)/C=C/c2ccc(OC(C)=O)c(OC(C)=O)c2)cc1OC(C)=O,TGI,[1],> 100 µM
same,TGI,[2],> 100 µM
same,TGI,[3],> 100 µM
same,TGI,[4],68.5 µM
same,TGI,[5],> 100 µM
same,TGI,[6],29.6 µM
same,TGI,[7],76.7 µM
same,TGI,[8],> 100 µM
same,TGI,[9],> 100 µM
same,TGI,[10],39.2 µM
CC(C)=NNc1ncnc2nc[nH]c12,TGI,[1],> 100 µM
same,TGI,[2],> 100 µM
same,TGI,[3],> 100 µM
same,TGI,[4],> 100 µM
same,TGI,[5],> 100 µM
same,TGI,[6],32.2 µM
same,TGI,[7],> 100 µM
same,TGI,[8],> 100 µM
same,TGI,[9],59.5 µM
same,TGI,[10],> 75.4 µM
CCN(CCCl)c1cc(CN(C)C)cc(NC(=O)c2cc(C(=O)Nc3cc(CN(C)C)cc(N(CC)CCCl)c3)n(C)n2)c1,TGI,[1],0.164 µM
same,TGI,[2],0.703 µM
same,TGI,[3],1.02 µM
same,TGI,[4],2.01 µM
same,TGI,[5],1.38 µM
same,TGI,[6],0.384 µM
same,TGI,[7],2.24 µM
same,TGI,[8],0.492 µM
same,TGI,[9],2.05 µM
same,TGI,[10],1.3 µM
